Laboratory results taken from patent US20090221690A1, “Pharmaceutical Composition for the Prevention/Treatment of Bone Disorders and a Process for the Preparation Thereof” (COUNCIL OF SCIENTIFIC AND INDUSTRIAL RESEARCH, priority 2006, published 2009).
Values belong to the molecule of their own block, whether it stands above or below them.

Legend:
[1] = tested on: bilaterally ovariectomized immature rats; experiment: Estrogen agonistic activity (uterine weight gain); type: in vivo, rat; conditions: 0.01 mg/kg/d, oral, 3 days
Method: The test agents were administered once daily for 3 consecutive days by the oral route and uterine weight gain over the corresponding vehicle control group was determined. 17α-Ethynylestradiol was used as reference standard.

[2] = tested on: primary osteoblasts; experiment: MTT assay for cell proliferation, primary osteoblast cell culture; type: cell-based, Balb/c mouse; conditions: 24 h; for Osteoblast cell proliferation (MTT assay): Vehicle 0.60 ± 0.06, Mean±SEM
Method: (§1) Neonatal mouse calvarial cell cultures are prepared as described previously (Endocrinology 139:4743) using slight modification. Briefly, for primary osteoblast cell cultures, frontal and parietal bones from Balb/c mouse neonates (1-3 day old) are digested in 0.1% collagenase/0.1% dispase in α-MEM to obtain 5 sequential digests. The second through fifth digests are combined and grown to confluence at 37° C. and 5% CO2 in air in α-MEM, supplemented with 10% fetal bovine serum (FBS), 2 mM glutamine, 100 U/ml penicillin-streptomycin, Non-essential amino acid solution and sodium pyruvate. The effect of test agents is analysed using the following tests:
MTT assay is a common assay used for assessing cell proliferation where tetrazolium salt is reduced to formazone crystals by the mitochondrial dehydrogenase enzyme, which are then dissolved in DMSO. More the number of metabolically active cells more will be the formazone crystals formed. Briefly, osteoblast cells are maintained in α-MEM medium supplemented with 10% FCS and 1% antibiotic solution in 96 well plate. When the cells attain 40% confluency, they are treated in presence or absence of test agents in 2% FCS supplemented media for 24 h. Twenty-four hours thereafter, MTT salt is added to the cells. After 4 h, the formazone crystals formed are dissolved in DMSO and readings taken at wavelength of 570 nm.
This assay is based on the ability of viable cells to reduce tetrazolium salt to form formazone crystals by mitochondrial dehydrogenase enzyme. In MTT assay, osteoblasts are maintained in α-MEM medium supplemented with 10% FCS and 1% antibiotic solution in 96 well plate. When the cells attain 40% confluency, they are treated in presence or absence of test agents in 2% FCS supplemented media for 24 h. Twenty-four hours thereafter, MTT salt is added to the cells. After 4 h, the formazone crystals formed due to reduction of tetrazolium salt by mitochondrial dehydrogenase enzyme are dissolved in DMSO and readings taken at wavelength of 570 nm. All the five pure compounds nos.

[3] = tested on: osteoblasts cultured on sterile bovine bone slices; experiment: Mineralisation by osteoblasts cultured on bovine bone slices, Alizarin red staining; type: cell-based, Balb/c mouse; conditions: 15 days, FIGS. 14 and 15
Method: as §1
(§2) Cells are seeded onto sterile bovine bone slices in 96-well plate and treated with the culture medium containing α-MEM, supplemented with 10% fetal bovine serum, 2 mM glutamine, 100 U/ml penicillin-streptomycin, non-essential amino acid solution, sodium pyruvate, 10 mM P-glycerophosphate and 50 μg/ml ascorbic acid. Culture medium is changed every alternate day. At termination of the culture, cells are washed twice with PBS, fixed in cold 70% ethanol for 1 h and washed once with water and stained with 40 mM Alizarin red (pH 4.7) for 30 min and then washed in PBS to remove excess staining.
as §2, with “In case of osteoblasts” for “Cells are”, “slices, the cells are cultured” for “slices”, “in A-MEM” for “and treated with the culture medium containing α-MEM,”, “p-glycerophosphate” for “P-glycerophosphate”, “acid in the absence or presence of test compounds or their mixtures.” for “acid.”, “culture after 15 days,” for “culture,”

[4] = tested on: osteoblasts; experiment: Quantification of alkaline phosphatase activity in osteoblasts; type: cell-based, Balb/c mouse; set-up: alkaline phosphatase activity: unit not given here; conditions: 48 h; for alkaline phosphatase activity: Control 1.87 ± 0.20, Mean±SEM
Method: as §1
p-Nitrophenol phosphate is a colorless substrate which is hydrolysed to colored p-nitrophenol by alkaline phosphatase enzyme. Rate of hydrolysis of p-nitrophenol phosphate is proportional to enzyme present in sample. […] Findings reveal that all the five pure compounds nos.

[5] = tested on: osteoblast cells; experiment: Quantification of mineralization in osteoblasts (Alizarin red, acetic acid extraction); type: cell-based, Balb/c mouse; conditions: osteoblasts cultured 7 days; vs vehicle control; FIG. 13
Method: as §1
For quantification of mineralization which is measured with increased deposition of nascent calcium in osteoblast cells, cells were cultured in the presence of test compounds for 7 days and stained with Alizarin red. Alizarin red was extracted with acetic acid and the intensity of stain, which is directly proportion to the extent of mineralisation, is read at 405 nm.

[6] = tested on: osteoblasts; experiment: Osteogenic activity of isolated compounds based on alkaline phosphatase expression, MTT and mineralisation in vitro; type: cell-based
Text: K051, K052, K054, K080, K082 (isolated from n-butanol soluble fraction) and K095 (isolated from chloroform soluble fraction) (FIGS. 11-15; Tables 10-11).

[7] = tested on: Cladosporium cladosporioides; conditions: Bandara et al. 1989/1990; cited from earlier work
[8] = tested on: Ishikawa (human uterine glandular epithelial carcinoma) cell line; experiment: MTT proliferation assay in Ishikawa cell line; type: cell-based; conditions: 10 nM and 1 μM; Ishikawa cells; FIG. 2
[9] = tested on: MCF-7 (human cancer breast) cell line; experiment: MTT proliferation assay in MCF-7 cell line; type: cell-based; conditions: 10 nM and 1 μM; MCF-7 cells; FIG. 2
[10] = tested on: PTH-induced resorption of ^45Ca from chick fetal bones in culture; experiment: Chick fetal bone culture assay, bone antiresorbing activity; type: cell-based; conditions: 100 μM; vehicle 1.03; T/C close to unity = no antiresorbing activity
Method: A slight modification of the method of Raisz (Nature 197: 1015-1016, 1963) was employed. Femur bones are isolated from chick embryos on day 11 post-ovulation and cleared of adhering connective tissue by carefully rotating each bone on dry Whatman (I) filter paper under stereomicroscope. Each femur bone is then placed in a drop of PBS before culturing in BGJb medium (pH 7.3) supplemented with penicillin (0.075 mg/ml), streptomycin (0.05 mg/ml), HEPES (2.382 mg/ml) and BSA (1 mg/ml), transferred to BGJb culture medium containing ^45CaCl2 (0.5 μCi/300 μl culture medium) and incubated for 2 h at 37° C. under 5% CO2 in air. Labeled femur bones are then washed with BGJb medium for 24 h at 37° C. under 5% CO2 in air. An aliquot of the medium was withdrawn for the measurement of ^45Ca released into the medium from bone during the first 24 h. […] Radioactivity due to ^45Ca in the spent medium collected at 24, 48 and 96 h of culture and HCl extract at 96 h of culture is quantified by Liquid Scintillation Spectrophotometer in 10 ml of the scintillation fluid (ACS II scintillation cocktail, Amersham Biosciences, UK). […] Bone anti-resorbing activity is expressed as percentage of ^45Ca released into the culture medium and the effect of the agent of invention as percent of the corresponding contra-lateral control or T/C ratio as shown below. […]

[11] = tested on: labeled chick fetal bones in culture; experiment: Chick fetal bone culture assay, bone forming activity; type: cell-based; conditions: 0.4 μM; T/C close to unity = no bone forming activity
Method: A slight modification of the method of Raisz (Nature 197: 1015-1016, 1963) was employed. Femur bones are isolated from chick embryos on day 11 post-ovulation and cleared of adhering connective tissue by carefully rotating each bone on dry Whatman (I) filter paper under stereomicroscope. Each femur bone is then placed in a drop of PBS before culturing in BGJb medium (pH 7.3) supplemented with penicillin (0.075 mg/ml), streptomycin (0.05 mg/ml), HEPES (2.382 mg/ml) and BSA (1 mg/ml), transferred to BGJb culture medium containing ^45CaCl2 (0.5 μCi/300 μl culture medium) and incubated for 2 h at 37° C. under 5% CO2 in air. Labeled femur bones are then washed with BGJb medium for 24 h at 37° C. under 5% CO2 in air. […]
Contralateral femur of each fetus serves as corresponding control. […] Radioactivity due to ^45Ca in the spent medium collected at 24, 48 and 96 h of culture and HCl extract at 96 h of culture is quantified by Liquid Scintillation Spectrophotometer in 10 ml of the scintillation fluid (ACS II scintillation cocktail, Amersham Biosciences, UK). […]
Bone forming activity (cpm)=A×(A/B)^1/2 ×Total radioactivity incorporated into bone during 24 h incubation with ^45Ca
where total radioactivity refers to ^45Ca released into the medium during first 24 hrs incubation+^45Ca released into the medium during 24 to 96 hr of incubation+^45Ca remaining in the femur. […]

Molecule: C#C[C@]1(O)CC[C@H]2[C@@H]3CCc4cc(O)ccc4[C@H]3CC[C@@]21C [17α-Ethynylestradiol]
Uterine weight gain [1]: 514%

osteogenic activity [6]: promising osteogenic activity
Molecule: COc1ccc2c(c1)OC1c3ccc(O)cc3OCC21 (centres unmarked) [Compound K095, 3-hydroxy-9-methoxypterocarpans]
Osteoblast cell proliferation (MTT assay) ([2]; 10^−5 M): 1.28 ± 0.08
Osteoblast cell proliferation (MTT assay) ([2]; 10^−6 M): 1.47 ± 0.14
Osteoblast cell proliferation (MTT assay) ([2]; 10^−7 M): 1.35 ± 0.16
Osteoblast cell proliferation (MTT assay) ([2]; 10^−8 M): 1.24 ± 0.18
Osteoblast cell proliferation (MTT assay) ([2]; 10^−9 M): 1.14 ± 0.19
Osteoblast cell proliferation (MTT assay) ([2]; 10^−10 M): 1.38 ± 0.18
osteoblast cell proliferation vs vehicle control ([2]; 10^−11 M to 10^−5 M): enhanced osteoblast cell proliferation
Osteoblast cell proliferation (MTT assay) ([2]; 10^−11 M): 1.05 ± 0.03
relative potency in mineralisation on bovine bone slices [3]: most potent
intensity of alizarin red staining (rate of new bone formation) ([3]; osteoblasts on bovine bone slices, alone or in combination): increased intensity of alizarin red staining
alkaline phosphatase activity ([4]; 10^−5 M): 3.28 ± 0.07
alkaline phosphatase activity ([4]; 10^−6 M): 3.42 ± 0.07
alkaline phosphatase activity ([4]; 10^−7 M): 3.50 ± 0.07
alkaline phosphatase activity ([4]; 10^−8 M): 3.35 ± 0.10
alkaline phosphatase activity ([4]; 10^−9 M): 3.54 ± 0.04
alkaline phosphatase activity ([4]; 10^−10 M): 3.40 ± 0.07
expression of alkaline phosphatase vs vehicle control ([4]; 10^−11 M to 10^−5 M): increased expression of alkaline phosphatase
alkaline phosphatase activity ([4]; 10^−11 M): 3.51 ± 0.01
mineralisation quantified by alizarin extraction method [5]: enhanced mineralisation
activity against Cladosporium cladosporioides [7]: active

Molecule: C[C@]12CC[C@@H]3c4ccc(O)cc4CC[C@H]3[C@@H]1CC[C@@H]2O [Estradiol-17β]
proliferation [8]: marked increase in proliferation
proliferation [9]: marked increase in proliferation
T/C ratio (PTH-induced resorption of ^45Ca) [10]: 0.37

Molecule: PTH (aa 1-34): Parathyroid hormone (PTH; aa 1-34), an osteogenic agent, taken as positive control (SVSEIQLMHNLGKHLNSMERVEWLRKKLQDVHNF; Parathyroid hormone; UniProt P01270 32-65, looked up, fragment)
T/C ratio (bone forming activity) [11]: 0.44
